Laboratory results reported in patent US20130217776A1, “Combination of a Serotonin Reuptake Inhibitor and Agomelatine” (H. Lundbeck A/S, priority 2003, published 2013).

Test system: serotonin in terminal areas
Experiment: microdialysis experiments (level of serotonin in terminal areas)
Assay type: in vivo
Settings: administration of agomelatine alone
Description: Administration of agomelatine alone causes no increase in serotonin levels as measured in microdialysis experiments.

`COc1ccc2cccc(CCNC(C)=O)c2c1` [agomelatine] was tested, and the “serotonin levels as measured in microdialysis experiments” value was “no increase”.
